The values that follow come from patent EP1452605A1, “Method for determining antiviral activity” (Universiteit Utrecht Holding B.V., priority 2003, dated 2004).

For data set [1], the system named is HIV-1Ba-L. The data set is described as follows: HIV-1 infection of PBMC, p24-core antigen ELISA. It is filed as cell-based. To be noted: Human immunodeficiency virus 1, PBMC; read-out: IC50. As for the experimental part:
To correct for the input virus, an extra control consisting of medium containing the same amount of input virus as added to the cells was included in the experiment. The amount of p24 in this control was subsequently subtracted from the p24 values of the samples in order to obtain the exact amount of p24 produced by the cells. p24-core antigen quantification by ELISA After 2 or 7 days incubation, samples of the supernatants were collected, inactivated by addition of Empigen (Calbiochem, La Jolla, CA, USA) and by heat inactivation at 56°C for 30 min. p24-core antigen concentration was determined by an enzyme linked immunoabsorbent assay (ELISA) (AMPAK™, DAKO, Cambridgeshire, UK) as described previously ^18,19. The optical density values were converted into p24 concentration (ng/ml) with the use of a calibration curve made by serial dilutions of recombinant p24 protein (NIBSC, UK) that was submitted to the same treatment as the samples.
(§1) To correct for the input virus, an extra control consisting of medium containing the same amount of input virus as added to the cells was included in the experiment. The amount of p24 in this control was subsequently subtracted from the p24 values of the samples in order to obtain the exact amount of p24 produced by the cells.
After 7 days incubation, samples of the supernatants were collected, inactivated by addition of Empigen (Calbiochem, La Jolla, CA, USA) and by heat inactivation at 56°C for 30 min. p24-core antigen concentration was determined by an ELISA (AMPAK™, DAKO, Cambridgeshire, UK) as described previously ^39,40. The optical density values were converted into p24 concentration (ng/ml) with the use of a calibration curve made by serial dilutions of recombinant p24 protein (NIBSC, UK) that was submitted to the same treatment as the samples.
as §1
After 7 days incubation, samples of the supernatants were collected, inactivated by addition of Empigen (Calbiochem, La Jolla, CA, USA) and by heat inactivation at 56°C for 30 min. p24-core antigen concentration was determined by an enzyme linked immunoabsorbent assay (ELISA) (AMPAK™, DAKO, Cambridgeshire, UK) as described previously 15,16. The optical density values were converted into p24 concentration (ng/ml) with the use of a calibration curve made by serial dilutions of recombinant p24 protein (NIBSC, UK) that was submitted to the same treatment as the samples.

Another data set relates to HIV-1HXB2. Kind of data set: Reverse transcription assay in PBMC: (-) strong stop and gag DNA by real-time Taqman PCR. Format: cell-based. The conditions noted are these: 10h after infection; for reduction in gag cDNA copies: PBMC. Here is the method: PBMC infection with HIV-1Ba-L or HIV-1HXB2 for real-time Taqman PCR The ability of HIV-1Ba-L to enter the cells in the presence of APHS was tested using DS as positive control (entry assay). The amount of HIV-1HXB2 reverse transcription products in the presence of APHS was also tested, using AZT as positive control (reverse transcription assay). Before infection, PHA-stimulated PBMC from the PBMC batch were pre-incubated with different concentrations of APHS, DS or AZT for 24 h. Afterwards, cells were washed and 1 × 10^6 PBMC were incubated for 40 min with HIV-1Ba-L or HIV-1HXB2 at an M.O.I. of 0.0025 and with appropriate concentrations of APHS, AZT, DS or medium in the presence of 1/20 concentrated M buffer (Roche) and 4U/ml DNase (Roche) to digest possible contaminating viral DNA associated with the virions. Afterwards PBMC were washed and resuspended in medium with or without compounds. Cells were treated with 1 mg/ml Pronase (Roche) to remove virus particles bound to the cells. […] At different time points, 1.0 × 10^6 cells were added to 900 µl Nuclisens lysis buffer (Organon Teknika, Boxtel, The Netherlands) containing 40 µl silica to bind total nucleic acids (Nuclisens isolation kit). For the entry assay, samples were collected 2h after the start of the infection and for the reverse transcription assays samples were collected 2, 7 and 10h after the start of the infection.
HIV RNA and DNA were extracted from samples of infected cells according to a method described before ^23. Briefly, after 10 min of mixing the silica and lysis buffer, tubes were shortly centrifuged at 13,000 rpm and supernatant was discarded. Free non-nucleic acid components were removed by washing the silica particles twice with Nuclisens washing buffer, twice with 70 % ethanol and once with acetone. The silica pellet was dried for 10 min at 56 °C. Total nucleic acids were eluted by resuspending the pellet in 100 µl nuclease-free water. After mixing the tubes for 10 min at 56 °C, tubes were shortly centrifuged and the supernatant was transferred to a new tube and stored at -20 °C.
Real-time Taqman PCR is based on cleavage of a probe, hybridized to the target sequence by 5'-3' nuclease activity of Taq DNA polymerase during amplification, as described previously ^24. Briefly, target sequence-specific forward and reverse primers prime the amplification reaction. The probe contains a reporter dye at the 5' end and a quencher dye at the 3' end. When both dyes are attached to the probe, reporter dye emission is quenched. The probe is displaced from the target during each polymeration cycle. Once separated from the quencher, the reporter dye emits its characteristic fluorescence, which can then be measured. The amount of fluorescence measured is proportional to the amount of PCR product.
HIV-1 gag cDNA and HIV-1 (-) strong stop and gag DNA were amplified and quantified by real-time Taqman PCR as described elsewhere ^25. Sets of primers/probes were designed according to a previous study by Zack and colleagues ^26. To quantify the amount of gag RNA in the samples, a cDNA standard curve was prepared from five-fold dilutions of extracted RNA from an HXB2 viral batch, of which the RNA amount was previously determined. To quantify (-) strong stop and gag DNA in the samples, a DNA standard curve was prepared from five-fold dilutions of DNA extracted from U1 cells, which contain two copies of the HIV-1HXB2 genome per cell. Albumin was also quantified and used for normalization of all samples.
A general note: In qPCR the cycle at which signal appears reflects the starting amount.

Another data set is described as follows: in vitro. The conditions noted are these: human.
The subject of data set [2] is HIV-1Ba-L. The data set is described as follows: Combination of HIV-1 inhibitors in HIV-1Ba-L infected PBMC (checker board, CalcuSyn).
Protocol: After 7 days of incubation, p24 antigen in culture supernatant was quantified by ELISA and cellular viability was assessed by a cytotoxicity assay. fa was calculated for each drug combination after p24 quantification. Using the CalcuSyn program, dose-effect curves were plotted for each drug combination, i.e., each dose was plotted against the corresponding fa value. […] CI values were calculated using the mutually nonexclusive assumption.
The next data set concerns FIV UT-113. The data set is described as follows: FIV infection of CrFK cells, FIV p24 ELISA. To be noted: 100 to 0.024 µM, p24 after 6 days. It is filed as cell-based, Feline immunodeficiency virus (FIV). Here is the method: After 6 days of incubation FIV replication was measured by quantification of the p24 viral core antigen in the cell culture supernatant by an FIV p24 enzyme-linked immunoabsorbent assay as described previously ^19.
(In general: ELISA stands for enzyme-linked immunosorbent assay.)

The next data set concerns CrFK cells. The data set is described as follows: Cellular viability assay (MTT) of CrFK cells. It is filed as cell-based, feline. The conditions noted are these: concentrations used in the FIV assay.
The subject of a further data set is MHV-A59. Kind of data set: MHV infection of mouse L cells, CPE scoring. Format: cell-based, Mouse hepatitis virus (MHV). To be noted: 24h, 143 to 0.009 µM. Here is the method:
(§2) After 24h, the cytopatic effect (CPE) of the virus and the cytotoxicity of the compounds were scored by microscopic observation.

Another data set deals with Mouse L cells. Kind of data set: Cytotoxicity in mouse L cells by microscopic observation. To be noted: mouse L cells, all tested concentrations. Here is the method:
as §2

As usually defined, the IC50 is the concentration at which inhibition is half-maximal.

Several values for one entry are separate records, joined by “and”; a condition that tells them apart may be missing. Identical values can stand only once. Some results are limits rather than exact numbers.

For `Cc1cn([C@H]2C[C@H](N=[N+]=[N-])[C@@H](CO)O2)c(=O)[nH]c1=O` [AZT, zidovudine], the IC50 in the data set with HIV-1Ba-L [1] is 3 nM; in the data set on HIV-1Ba-L [2] (Human immunodeficiency virus 1, PBMC, 168 h, read-out: IC50 Drug, drug alone, head over this column prints Combination), 3 nM; with HIV-1Ba-L [2] (read-out: IC50 Combination Drug, drug in combination with APHS at the equipotent ratio (1 : 1)), 2 nM. In addition, the “reduction in gag cDNA copies” value was 35% and 40% in the data set on HIV-1HXB2 (5 nM AZT); 90% in the data set on HIV-1HXB2 (1000 nM AZT). In addition, in the data set with HIV-1HXB2 (10 or 30 µM APHS, 5 or 1000 nM AZT), the “(-) strong stop DNA copy numbers versus untreated PBMC” value was “did not show a significant decrease”. Further, the CC50 at 7 days in “in vitro” was > 80000 nM.

As to `CCCCCSc1ccccc1O` [APHS-d, phenol, 2-(pentylthio)], the “effect on FIV replication” value in the data set on FIV UT-113 is “did not show any effect”. The “cytotoxicity for CrFK cells” value in the data set with CrFK cells is “not cytotoxic”. Further, the “effect on MHV replication (CPE)” value with MHV-A59 is listed as “no effect”. Also, the “cytotoxicity by microscopic observation” value in the data set on Mouse L cells is given as “not cytotoxic”.
